PubChem BioAssay AID1259407 (Chemical Carcinogenesis Research Information System (CCRIS), 2018)
Calls of active or inactive are those of the source. How the calls were made is not given here.

Tested on: CCRIS mutagenicity, Ames/micronucleus/aberration tests
Test: CCRIS mutagenicity studies
[1] = Test System: AMES SALMONELLA TYPHIMURIUM, Strain/Indicator: TA97, Metabolic Activation: NONE, Method: STANDARD PLATE
[2] = Test System: AMES SALMONELLA TYPHIMURIUM, Strain/Indicator: TA97, Metabolic Activation: RAT, LIVER, S-9, AROCLOR 1254, Method: STANDARD PLATE
[3] = Test System: AMES SALMONELLA TYPHIMURIUM, Strain/Indicator: TA98, Metabolic Activation: NONE, Method: STANDARD PLATE
[4] = Test System: AMES SALMONELLA TYPHIMURIUM, Strain/Indicator: TA98, Metabolic Activation: RAT, LIVER, S-9, AROCLOR 1254, Method: STANDARD PLATE
[5] = Test System: AMES SALMONELLA TYPHIMURIUM, Strain/Indicator: TA100, Metabolic Activation: NONE, Method: STANDARD PLATE
[6] = Test System: AMES SALMONELLA TYPHIMURIUM, Strain/Indicator: TA100, Metabolic Activation: RAT, LIVER, S-9, AROCLOR 1254, Method: STANDARD PLATE

CCC(CCC(C)O)COC(=O)CCCCC(=O)O (stereo unspecified)
mutagenic call [1]: inactive; negative
mutagenic call [2]: inactive; negative
mutagenic call (Test System: AMES SALMONELLA TYPHIMURIUM, Strain/Indicator: TA97, Metabolic Activation: RAT, LIVER, S-9, DI(2-ETHYLHEXYL)PHTHALATE, Method: STANDARD PLATE): inactive; negative
mutagenic call [3]: inactive; negative
mutagenic call [4]: inactive; negative
mutagenic call (Test System: AMES SALMONELLA TYPHIMURIUM, Strain/Indicator: TA98, Metabolic Activation: RAT, LIVER, S-9, DI(2-ETHYLHEXYL)PHTHALATE, Method: STANDARD PLATE): inactive; negative
mutagenic call [5]: inactive; negative
mutagenic call [6]: inactive; negative
mutagenic call (Test System: AMES SALMONELLA TYPHIMURIUM, Strain/Indicator: TA100, Metabolic Activation: RAT, LIVER, S-9, DI(2-ETHYLHEXYL)PHTHALATE, Method: STANDARD PLATE): inactive; negative
mutagenic call (Test System: AMES SALMONELLA TYPHIMURIUM, Strain/Indicator: TA102, Metabolic Activation: NONE, Method: STANDARD PLATE): inactive; negative
mutagenic call (Test System: AMES SALMONELLA TYPHIMURIUM, Strain/Indicator: TA102, Metabolic Activation: RAT, LIVER, S-9, AROCLOR 1254, Method: STANDARD PLATE): inactive; negative
mutagenic call (Test System: AMES SALMONELLA TYPHIMURIUM, Strain/Indicator: TA102, Metabolic Activation: RAT, LIVER, S-9, DI(2-ETHYLHEXYL)PHTHALATE, Method: STANDARD PLATE): inactive; negative

N=c1c2ncn(C(c3ccccc3)(c3ccccc3)c3ccccc3)c2ncn1O
mutagenic call [1]: inactive; negative
mutagenic call [2]: inactive; negative
mutagenic call [3]: inactive; negative
mutagenic call [4]: active; positive
mutagenic call [5]: inactive; negative
mutagenic call [6]: inactive; negative

O=C(N/N=C/c1ccc([N+](=O)[O-])o1)c1ccc(O)cc1
mutagenic call (Test System: AMES SALMONELLA TYPHIMURIUM, Strain/Indicator: TA100(FR1), Metabolic Activation: NONE, Method: STANDARD PLATE): active; positive
mutagenic call (Test System: AMES SALMONELLA TYPHIMURIUM, Strain/Indicator: TA100(FR1), Metabolic Activation: RAT, LIVER, S-9, PHENOBARBITAL AND 3-METHYLCHOLANTHRENE, Method: STANDARD PLATE): active; positive
mutagenic call [5]: active; positive
mutagenic call (Test System: AMES SALMONELLA TYPHIMURIUM, Strain/Indicator: TA100, Metabolic Activation: RAT, LIVER, S-9, PHENOBARBITAL AND 3-METHYLCHOLANTHRENE, Method: STANDARD PLATE): active; positive
mutagenic call (Test System: CHINESE HAMSTER V-79, Strain/Indicator: V-79/6-THIOGUANINE, Metabolic Activation: NONE): inactive; negative
mutagenic call (Test System: CHINESE HAMSTER V-79, Strain/Indicator: V-79/6-THIOGUANINE, Metabolic Activation: RAT, LIVER, HEPATOCYTES): inactive; negative
mutagenic call (Test System: CHINESE HAMSTER V-79, Strain/Indicator: V-79/OUABAIN, Metabolic Activation: NONE): inactive; negative
mutagenic call (Test System: CHINESE HAMSTER V-79, Strain/Indicator: V-79/OUABAIN, Metabolic Activation: RAT, LIVER, HEPATOCYTES): inactive; negative

O=C(CCCl)N=c1sn(C(=O)CCCl)c2ccc(Cl)cc12
mutagenic call (Test System: AMES SALMONELLA TYPHIMURIUM, Strain/Indicator: TA100, Metabolic Activation: S-9, Method: STANDARD PLATE): inactive; negative

Cc1ccc2cc3c(ccc4ccccc43)c3c2c1CC3O (stereo unspecified)
mutagenic call (Test System: CHINESE HAMSTER V-79, Strain/Indicator: V-79/8-AZAGUANINE, Metabolic Activation: RAT, LIVER, S-9, AROCLOR 1254, Method: STANDARD PLATE): active; positive

CC12CCC=C(C=O)C1(C=O)C2 (stereo unspecified)
mutagenic call [3]: active; positive
mutagenic call [5]: active; positive

CC(Br)C(=O)NC(C)(C)C (stereo unspecified)
mutagenic call [5]: inactive; negative

CCN(Cc1cccc(S(=O)(=O)O)c1)c1ccc(C(=C2C=CC(=[N+](CC)Cc3cccc(S(=O)(=O)O)c3)C=C2)c2ccc(O)cc2S(=O)(=O)[O-])cc1
mutagenic call (End Point: IN VIVO MICRONUCLEUS, Test System: BONE MARROW POLYCHROMATIC ERYTHROCYTES, Species: MOUSE, Strain/Sex: DDY/MALE, Route: IP): inactive; negative
mutagenic call (Test System: Mouse lymphoma, Strain/Indicator: L5178Y (tk+/tk-), Metabolic Activation: None, Method: Suspension/plate): inactive; negative
mutagenic call (Test System: Mouse lymphoma, Strain/Indicator: L5178Y (tk+/tk-), Metabolic Activation: Rat, Liver, S-9, Aroclor 1254, Method: Suspension/plate): inactive; negative

O=[N+]([O-])c1cccc2ccccc12
mutagenic call [3]: active; positive
mutagenic call (Test System: E. COLI, Strain/Indicator: WP2 UVRA, Metabolic Activation: HAMSTER, LIVER, S-9, AROCLOR 1254, Method: STANDARD PLATE): inactive; negative
mutagenic call (Test System: E. COLI, Strain/Indicator: WP2 UVRA, Metabolic Activation: MOUSE, LIVER, S-9, AROCLOR 1254, Method: STANDARD PLATE): inactive; negative
mutagenic call (Test System: E. COLI, Strain/Indicator: WP2 UVRA, Metabolic Activation: MOUSE, LIVER, S-9, Method: STANDARD PLATE): inactive; negative
mutagenic call (Test System: E. COLI, Strain/Indicator: WP2 UVRA, Metabolic Activation: NONE, Method: STANDARD PLATE): inactive; negative
mutagenic call (Test System: E. COLI, Strain/Indicator: WP2 UVRA, Metabolic Activation: RAT, LIVER, S-9, AROCLOR 1254, Method: STANDARD PLATE): inactive; negative
mutagenic call (Test System: E. COLI, Strain/Indicator: WP2 UVRA, Metabolic Activation: RAT, LIVER, S-9, Method: STANDARD PLATE): inactive; negative
